Reference: the NIST ThermoML archive (doi:10.1021/acs.jced.5b01075)
± gives the expanded uncertainty stated by the source.

Test: wn = mass fraction of the nth substance listed
Conditions: 100 kPa, Liquid; for speed of sound: Frequency=3 MHz, Sing-around technique in a fixed-path interferometer; for mass density: Vibrating tube method

In the case of `C1CC[C@H]2CCCC[C@@H]2C1` [trans-decahydronaphthalene] + c1ccc2c(c1)CCCC2, the speed of sound (293.15 K, w2 = 0.1003) is reported as 1405 ± 1.2 m/s, the speed of sound (293.15 K, w2 = 0.2002) is reported as 1412.5 ± 1.3 m/s and the speed of sound (293.15 K, w2 = 0.3) is reported as 1420.5 ± 1.3 m/s. For the same compound, the speed of sound (293.15 K, w2 = 0.4002) was 1428.8 ± 1.3 m/s, the speed of sound (293.15 K, w2 = 0.5) was 1437.7 ± 1.4 m/s and the speed of sound (293.15 K, w2 = 0.6) was 1446.9 ± 1.4 m/s. It also gave a speed of sound (293.15 K, w2 = 0.7) of 1456.8 ± 1.4 m/s, a speed of sound (293.15 K, w2 = 0.8) of 1467 ± 1.5 m/s and a speed of sound (293.15 K, w2 = 0.8999) of 1477.9 ± 1.5 m/s. It also gave a mass density (293.15 K, w2 = 0.1003) of 878.7 ± 0.23 kg/m3, a mass density (293.15 K, w2 = 0.2002) of 887.89 ± 0.24 kg/m3 and a mass density (293.15 K, w2 = 0.3) of 897.28 ± 0.24 kg/m3. It also gave a mass density (293.15 K, w2 = 0.4002) of 906.9 ± 0.25 kg/m3, a mass density (293.15 K, w2 = 0.5) of 916.67 ± 0.25 kg/m3 and a mass density (293.15 K, w2 = 0.6) of 926.69 ± 0.26 kg/m3. It also gave a mass density (293.15 K, w2 = 0.7) of 936.89 ± 0.27 kg/m3, a mass density (293.15 K, w2 = 0.8) of 947.32 ± 0.29 kg/m3 and a mass density (293.15 K, w2 = 0.8999) of 957.95 ± 0.3 kg/m3. It also gave a speed of sound (303.15 K, w2 = 0.1003) of 1364.8 ± 1.2 m/s, a speed of sound (303.15 K, w2 = 0.2002) of 1372.4 ± 1.3 m/s and a speed of sound (303.15 K, w2 = 0.3) of 1380.5 ± 1.3 m/s. It also gave a speed of sound (303.15 K, w2 = 0.4002) of 1388.9 ± 1.3 m/s, a speed of sound (303.15 K, w2 = 0.5) of 1397.9 ± 1.4 m/s and a speed of sound (303.15 K, w2 = 0.6) of 1407.2 ± 1.4 m/s. It also gave a speed of sound (303.15 K, w2 = 0.7) of 1417.2 ± 1.4 m/s, a speed of sound (303.15 K, w2 = 0.8) of 1427.6 ± 1.5 m/s and a speed of sound (303.15 K, w2 = 0.8999) of 1438.6 ± 1.5 m/s. The mass density (303.15 K, w2 = 0.1003) was 871.18 ± 0.23 kg/m3, the mass density (303.15 K, w2 = 0.2002) was 880.33 ± 0.24 kg/m3 and the mass density (303.15 K, w2 = 0.3) was 889.67 ± 0.24 kg/m3. For the same compound, the mass density (303.15 K, w2 = 0.4002) was 899.23 ± 0.25 kg/m3, the mass density (303.15 K, w2 = 0.5) was 908.96 ± 0.25 kg/m3 and the mass density (303.15 K, w2 = 0.6) was 918.92 ± 0.26 kg/m3. For the same compound, the mass density (303.15 K, w2 = 0.7) was 929.09 ± 0.27 kg/m3, the mass density (303.15 K, w2 = 0.8) was 939.47 ± 0.29 kg/m3 and the mass density (303.15 K, w2 = 0.8999) was 950.07 ± 0.3 kg/m3. It also gave a speed of sound (313.15 K, w2 = 0.1003) of 1325.3 ± 1.2 m/s, a speed of sound (313.15 K, w2 = 0.2002) of 1333.1 ± 1.3 m/s and a speed of sound (313.15 K, w2 = 0.3) of 1341.3 ± 1.3 m/s. For the same compound, the speed of sound (313.15 K, w2 = 0.4002) was 1349.9 ± 1.3 m/s, the speed of sound (313.15 K, w2 = 0.5) was 1358.9 ± 1.4 m/s and the speed of sound (313.15 K, w2 = 0.6) was 1368.4 ± 1.4 m/s. It also gave a speed of sound (313.15 K, w2 = 0.7) of 1378.4 ± 1.4 m/s, a speed of sound (313.15 K, w2 = 0.8) of 1388.9 ± 1.5 m/s and a speed of sound (313.15 K, w2 = 0.8999) of 1400 ± 1.5 m/s. It also gave a mass density (313.15 K, w2 = 0.1003) of 863.68 ± 0.23 kg/m3, a mass density (313.15 K, w2 = 0.2002) of 872.76 ± 0.24 kg/m3 and a mass density (313.15 K, w2 = 0.3) of 882.05 ± 0.24 kg/m3. For the same compound, the mass density (313.15 K, w2 = 0.4002) was 891.55 ± 0.25 kg/m3, the mass density (313.15 K, w2 = 0.5) was 901.24 ± 0.25 kg/m3 and the mass density (313.15 K, w2 = 0.6) was 911.15 ± 0.26 kg/m3. The mass density (313.15 K, w2 = 0.7) was 921.27 ± 0.27 kg/m3, the mass density (313.15 K, w2 = 0.8) was 931.61 ± 0.29 kg/m3 and the mass density (313.15 K, w2 = 0.8999) was 942.17 ± 0.3 kg/m3. For the same compound, the speed of sound (323.15 K, w2 = 0.1003) was 1286.7 ± 1.2 m/s, the speed of sound (323.15 K, w2 = 0.2002) was 1294.5 ± 1.2 m/s and the speed of sound (323.15 K, w2 = 0.3) was 1302.8 ± 1.3 m/s. The speed of sound (323.15 K, w2 = 0.4002) was 1311.5 ± 1.3 m/s, the speed of sound (323.15 K, w2 = 0.5) was 1320.7 ± 1.4 m/s and the speed of sound (323.15 K, w2 = 0.6) was 1330.2 ± 1.4 m/s. For the same compound, the speed of sound (323.15 K, w2 = 0.7) was 1340.4 ± 1.4 m/s, the speed of sound (323.15 K, w2 = 0.8) was 1350.9 ± 1.5 m/s and the speed of sound (323.15 K, w2 = 0.8999) was 1362 ± 1.5 m/s. For the same compound, the mass density (323.15 K, w2 = 0.1003) was 856.15 ± 0.23 kg/m3, the mass density (323.15 K, w2 = 0.2002) was 865.18 ± 0.24 kg/m3 and the mass density (323.15 K, w2 = 0.3) was 874.42 ± 0.24 kg/m3. For the same compound, the mass density (323.15 K, w2 = 0.4002) was 883.87 ± 0.25 kg/m3, the mass density (323.15 K, w2 = 0.5) was 893.51 ± 0.26 kg/m3 and the mass density (323.15 K, w2 = 0.6) was 903.37 ± 0.26 kg/m3. The mass density (323.15 K, w2 = 0.7) was 913.45 ± 0.27 kg/m3, the mass density (323.15 K, w2 = 0.8) was 923.75 ± 0.29 kg/m3 and the mass density (323.15 K, w2 = 0.8999) was 934.26 ± 0.3 kg/m3. For the same compound, the speed of sound (333.15 K, w2 = 0.1003) was 1248.7 ± 1.2 m/s, the speed of sound (333.15 K, w2 = 0.2002) was 1256.7 ± 1.2 m/s and the speed of sound (333.15 K, w2 = 0.3) was 1265.1 ± 1.3 m/s. For the same compound, the speed of sound (333.15 K, w2 = 0.4002) was 1273.9 ± 1.3 m/s, the speed of sound (333.15 K, w2 = 0.5) was 1283.1 ± 1.3 m/s and the speed of sound (333.15 K, w2 = 0.6) was 1292.7 ± 1.4 m/s. It also gave a speed of sound (333.15 K, w2 = 0.7) of 1303 ± 1.4 m/s, a speed of sound (333.15 K, w2 = 0.8) of 1313.5 ± 1.5 m/s and a speed of sound (333.15 K, w2 = 0.8999) of 1324.8 ± 1.5 m/s. It also gave a mass density (333.15 K, w2 = 0.1003) of 848.6 ± 0.24 kg/m3, a mass density (333.15 K, w2 = 0.2002) of 857.58 ± 0.24 kg/m3 and a mass density (333.15 K, w2 = 0.3) of 866.77 ± 0.24 kg/m3. For the same compound, the mass density (333.15 K, w2 = 0.4002) was 876.17 ± 0.25 kg/m3, the mass density (333.15 K, w2 = 0.5) was 885.76 ± 0.26 kg/m3 and the mass density (333.15 K, w2 = 0.6) was 895.58 ± 0.26 kg/m3. The mass density (333.15 K, w2 = 0.7) was 905.62 ± 0.27 kg/m3, the mass density (333.15 K, w2 = 0.8) was 915.87 ± 0.29 kg/m3 and the mass density (333.15 K, w2 = 0.8999) was 926.34 ± 0.3 kg/m3. The mass density (343.15 K, w2 = 0.1003) was 841 ± 0.5 kg/m3, the mass density (343.15 K, w2 = 0.2002) was 850 ± 0.5 kg/m3 and the mass density (343.15 K, w2 = 0.3) was 859.1 ± 0.5 kg/m3. It also gave a mass density (343.15 K, w2 = 0.4002) of 868.3 ± 0.5 kg/m3, a mass density (343.15 K, w2 = 0.5) of 878 ± 0.5 kg/m3 and a mass density (343.15 K, w2 = 0.6) of 887.9 ± 0.5 kg/m3. The mass density (343.15 K, w2 = 0.7) was 897.7 ± 0.5 kg/m3, the mass density (343.15 K, w2 = 0.8) was 907.9 ± 0.5 kg/m3 and the mass density (343.15 K, w2 = 0.8999) was 918.5 ± 0.6 kg/m3. It also gave a mass density (353.1 K, w2 = 0.1003) of 833.2 ± 0.5 kg/m3, a mass density (353.1 K, w2 = 0.2002) of 842.3 ± 0.5 kg/m3 and a mass density (353.1 K, w2 = 0.3) of 851.4 ± 0.5 kg/m3. The mass density (353.1 K, w2 = 0.4002) was 860.6 ± 0.5 kg/m3, the mass density (353.1 K, w2 = 0.5) was 870.2 ± 0.5 kg/m3 and the mass density (353.1 K, w2 = 0.6) was 880 ± 0.5 kg/m3. The mass density (353.1 K, w2 = 0.7) was 889.8 ± 0.5 kg/m3, the mass density (353.1 K, w2 = 0.8) was 900 ± 0.5 kg/m3 and the mass density (353.1 K, w2 = 0.8999) was 910.5 ± 0.6 kg/m3. The mass density (363.1 K, w2 = 0.1003) was 825.5 ± 0.5 kg/m3, the mass density (363.1 K, w2 = 0.2002) was 834.6 ± 0.5 kg/m3 and the mass density (363.1 K, w2 = 0.3) was 843.5 ± 0.5 kg/m3. For the same compound, the mass density (363.1 K, w2 = 0.4002) was 852.8 ± 0.5 kg/m3, the mass density (363.1 K, w2 = 0.5) was 862.3 ± 0.5 kg/m3 and the mass density (363.1 K, w2 = 0.6) was 872.1 ± 0.5 kg/m3. For the same compound, the mass density (363.1 K, w2 = 0.7) was 881.8 ± 0.5 kg/m3, the mass density (363.1 K, w2 = 0.8) was 892 ± 0.5 kg/m3 and the mass density (363.1 K, w2 = 0.8999) was 902.4 ± 0.6 kg/m3. For the same compound, the mass density (373.1 K, w2 = 0.1003) was 817.9 ± 0.5 kg/m3, the mass density (373.1 K, w2 = 0.2002) was 826.9 ± 0.5 kg/m3 and the mass density (373.1 K, w2 = 0.3) was 835.8 ± 0.5 kg/m3. For the same compound, the mass density (373.1 K, w2 = 0.4002) was 844.9 ± 0.5 kg/m3, the mass density (373.1 K, w2 = 0.5) was 854.5 ± 0.5 kg/m3 and the mass density (373.1 K, w2 = 0.6) was 864.2 ± 0.5 kg/m3. For the same compound, the mass density (373.1 K, w2 = 0.7) was 874 ± 0.5 kg/m3, the mass density (373.1 K, w2 = 0.8) was 883.9 ± 0.5 kg/m3 and the mass density (373.1 K, w2 = 0.8999) was 894.4 ± 0.6 kg/m3.
